± gives the uncertainty stated by the source.
Test: xn = mol fraction of the nth substance listed

OC1CCCCC1 + OC1CCCC1
viscosity [mPa·s], 100 kPa
Details	x2 = 0.1	x2 = 0.3	x2 = 0.5	x2 = 0.7	x2 = 0.9
303.15 K	34.92 ± 0.36	23.18 ± 0.3	16.54 ± 0.23	12.51 ± 0.19	9.2 ± 0.18
308.15 K	27.86 ± 0.34	19.17 ± 0.25	13.78 ± 0.2	10.67 ± 0.18	7.88 ± 0.17
313.15 K	21.32 ± 0.29	15.13 ± 0.23	11.11 ± 0.19	8.78 ± 0.18	6.57 ± 0.17
318.16 K	16.48 ± 0.24	11.96 ± 0.2	9.04 ± 0.18	7.2 ± 0.17	5.49 ± 0.17

CC1(C)OCC(CO)O1 (stereo not given) + OCC(O)CO
viscosity [mPa·s], 101 kPa
Details	x1 = 0.1	x1 = 0.2015	x1 = 0.3	x1 = 0.4012	x1 = 0.499	x1 = 0.6002	x1 = 0.7	x1 = 0.801	x1 = 0.9003
298.15 K	803.5 ± 46	702.6 ± 39	600.8 ± 31	502.2 ± 25	407.7 ± 19	319.4 ± 14	243.3 ± 9.3	163.1 ± 5.4	84.15 ± 2.3
308.15 K	356.9 ± 16	310 ± 13	262 ± 11	212.8 ± 8.3	167.1 ± 6.2	129.5 ± 4.5	97.75 ± 3.2	69.56 ± 2.1	35.83 ± 1.1
318.15 K	175.4 ± 6.6	150 ± 5.4	123.5 ± 4.3	98.86 ± 3.3	75.9 ± 2.5	54.95 ± 1.9	43.91 ± 1.5	31.63 ± 1.1	16.65 ± 0.52

CCOC(=O)C(C)O (stereo not given) + OCCCO
101 kPa
Details	viscosity [mPa·s]
298.15 K, x1 = 0.4996	9.585 ± 0.18
303.15 K, x1 = 0.3	14.35 ± 0.28
303.15 K, x1 = 0.8	3.405 ± 0.066
313.15 K, x1 = 0.3998	7.365 ± 0.14
318.15 K, x1 = 0.3	8.235 ± 0.16
323.15 K, x1 = 0.5997	3.235 ± 0.062

CC1(C)OCC(CO)O1 (stereo not given) + OCCO
viscosity [mPa·s], 101 kPa
Details	x1 = 0.0997	x1 = 0.2	x1 = 0.3008	x1 = 0.3988	x1 = 0.5014	x1 = 0.6	x1 = 0.7003	x1 = 0.8	x1 = 0.8997
298.15 K	15.54 ± 0.34	14.27 ± 0.31	12.57 ± 0.28	11.4 ± 0.25	10.31 ± 0.23	9.722 ± 0.22	9.762 ± 0.22	9.801 ± 0.22	9.695 ± 0.23
308.15 K	10.5 ± 0.23	9.645 ± 0.21	8.569 ± 0.19	7.712 ± 0.17	6.932 ± 0.16	6.525 ± 0.15	6.516 ± 0.15	6.912 ± 0.16	6.889 ± 0.16
318.15 K	7.537 ± 0.17	6.894 ± 0.15	6.139 ± 0.14	5.409 ± 0.12	4.898 ± 0.11	4.639 ± 0.11	4.882 ± 0.11	5.057 ± 0.12	5.085 ± 0.12

OC1CCCCC1 + OCCO
viscosity [mPa·s], 100 kPa
Details	293.15 K	298.15 K	303.15 K	308.15 K	313.15 K	318.15 K
x1 = 0.0097	20.9 ± 3	16.96 ± 3	13.79 ± 3	11.32 ± 3	9.626 ± 3	7.932 ± 3
x1 = 0.0396	21.26 ± 3	17.11 ± 3	13.94 ± 3	11.35 ± 3	9.765 ± 3	8.069 ± 3
x1 = 0.058	21.37 ± 3	17.21 ± 3	14.04 ± 3	11.44 ± 3	9.849 ± 3	8.139 ± 3
x1 = 0.088	21.54 ± 3	17.34 ± 3	14.16 ± 3	11.54 ± 3	9.965 ± 3	8.26 ± 3
x1 = 0.1001	21.6 ± 3	17.4 ± 3	14.2 ± 3	11.58 ± 3	10 ± 3	8.294 ± 3
x1 = 0.1963	21.79 ± 3	17.59 ± 3	14.34 ± 3	11.66 ± 3	10.09 ± 3	8.427 ± 3
x1 = 0.3051	21.94 ± 3	17.71 ± 3	14.45 ± 3	11.76 ± 3	10.19 ± 3	8.481 ± 3
x1 = 0.397	22.13 ± 3	17.96 ± 3	14.66 ± 3	12.02 ± 3	10.42 ± 3	8.606 ± 3
x1 = 0.4994	23.25 ± 3	18.43 ± 3	15.1 ± 3	12.54 ± 3	10.71 ± 3	8.723 ± 3
x1 = 0.5878	26.46 ± 3	20.22 ± 3	16.33 ± 3	12.82 ± 3	11.32 ± 3	9.179 ± 3
x1 = 0.6994	31.25 ± 3.1	23.24 ± 3	18.88 ± 3	14.44 ± 3	12.15 ± 3	9.912 ± 3
x1 = 0.7971	38.27 ± 3.1	28.43 ± 3	22.87 ± 3	17.78 ± 3	14.34 ± 3	11.34 ± 3
x1 = 0.8978	53.55 ± 3.1	38 ± 3.1	28.77 ± 3	22.38 ± 3	17.93 ± 3	13.99 ± 3

CC(=O)CC(C)(C)O + OCc1ccccc1
298.15 K, 101 kPa
Details	viscosity [mPa·s]
x2 = 0.0518	2.886 ± 0.075
x2 = 0.1087	3.021 ± 0.079
x2 = 0.1705	3.199 ± 0.084
x2 = 0.2406	3.41 ± 0.089
x2 = 0.3325	3.67 ± 0.096
x2 = 0.3445	3.703 ± 0.097
x2 = 0.4344	3.968 ± 0.1
x2 = 0.5378	4.295 ± 0.11
x2 = 0.6345	4.596 ± 0.12
x2 = 0.7171	4.831 ± 0.13
x2 = 0.7554	4.935 ± 0.13
x2 = 0.8122	5.096 ± 0.14
x2 = 0.878	5.303 ± 0.14
x2 = 0.9123	5.42 ± 0.14
x2 = 0.9146	5.43 ± 0.14

OC1CCCCC1 + Oc1ccccc1
298.15 K, 101.3 kPa
Details	viscosity [mPa·s]
x1 = 0.79	27.6 ± 0.47
x1 = 0.89	37.1 ± 0.71

CCC(N)=O + [Al+3].[Cl-].[Cl-].[Cl-]
viscosity [mPa·s], 101 kPa
Details	x2 = 0.5	x2 = 0.52	x2 = 0.57	x2 = 0.6	x2 = 0.63
313 K	32.65 ± 0.73	25.38 ± 0.58	23.95 ± 0.54	24.65 ± 0.55	25.32 ± 0.57
323 K	23.49 ± 0.53	19.12 ± 0.43	17.93 ± 0.4	18.32 ± 0.41	18.7 ± 0.42

Source: the CheMixHub viscosity set
